Laboratory results taken from patent US20090069324A1, “CHEMICAL INHIBITORS OF BFL-1 AND RELATED METHODS” (The Burnham Institute, priority 2007, published 2009).
Values joined by “and” are separate entries in the source; they are usually repeats but may differ in a detail not shown here. Equal values may be shown once. “Also recorded” adds a separate entry of the source.

Assays:
[1] = system: RS11846 B-lymphoma cell line; test: Induction of apoptosis, Annexin-FITC/PI flow cytometry; type: cell-based, human; settings: 16 hours incubation
Description: To test compounds for their ability to induce apoptosis in cancer cells, the RS11846 B-lymphoma cell line was used. The RS11846 cell line was established from a patient with an aggressive form of diffuse large cell lymphoma, representing a subset of B-lymphoma in humans. This type of human B-lymphoma is characterized by infiltration beyond lymphoid compartment (bone marrow, spleen, lymph nodes, liver and etc.), typically infiltrate into ovary (in female), testis (in male), spinal cord and CNS (central nervous system) therefore given nomenclature of “diffuse.” Histo-pathologically, the RS11846 cell line is diffuse large cell B-lymphoma, thus representing an immature, aggressive form of the disease. […] Therefore, this cell line is suitable for examining biological effects of Bfl-1 antagonists concerned in this patent application.
For the assay to test compounds for their ability to induce apoptosis, the RS11846 B-lymphoma cell line was cultured in RPMI-1640 supplemented by 10% FBS and Penicillin/Streptomycin. The cells were seeded at cell density of half a million cells per ml, and incubation time was 16 hours. In the assay, cell viability was analyzed by the Annexin-FITC/PI method, using flow cytometry, or FACS analysis. Viable cells were defined by Annexin-FITC-negative, PI-negative. Compensation was done using conventional methods and using the Flo-jo program.
IC50 (50% killing) was determined using an extrapolation method based on the finding that biological response is almost linear near at 50% inhibition point when plotted against semi-log scale on X-axis. See, D. J. Finney, Statistical Method in Biological Assay, Griffin, London, 1978. Briefly, % viability was plotted on Y-axis on an ordinary scale, while drug concentration was plotted on X-axis on a semi-log scale. The actual 50% inhibition point is on the line between left-bracket (higher than 50% inhibition) and right bracket (lower than 50% inhibition), and it can be extrapolated on the line on a semi-log scale. Thus, IC50 was extrapolated via left bracketing and right bracketing, and extrapolated on a semi-log scale, and then, re-converted back to an ordinary scale.

[2] = system: anti-apoptotic members of the Bcl-2-family; test: FPA competition assay, GST-Bcl-2 fusion proteins with FITC-Bid BH3 peptide in PBS; type: binding, human; settings: 100 nM GST-fusion proteins, 5 nM FITC-Bid BH3 peptide
Experimental: Bcl-2-binding compounds were tested by competition assay analysis. The green tea compound […] (EGCG) has been reported to bind Bcl-2 and Bcl-XL (Leone et al., Cancer Res 63:8118-8121 (2003)). The ability of EGCG to compete with fluorochrome-labeled BH3 peptides was confirmed by FPA. 100 nM of GST-Bcl-2 fusion proteins were incubated with various concentrations of EGCG or control compound ECG (“C”) for 2 min in PBS buffer in 50 uL. Next, 5 nM FITC-conjugated-Bid BH3 peptide was added, bringing final volume to 100 uL and final DMSO concentration to 1%. Fluorescence polarization was measured after 20 min. […] This compound therefore can serve as a positive control when performing high throughput screens of a chemical library.

Bcl-2 = target: T1, Bcl-2 (Homo sapiens, UniProt P10415); test: Bcl-2/FITC-Bim FPA selectivity assay; type: binding
T1 construct: lacking their C-terminal transmembrane domains (approximately last 20 amino-acids); GST (N); made in house; host or cells: XL-1 Blue cells (E. coli), pGEX 4T-1
T1 sequence (P10415 1-218 limits assumed): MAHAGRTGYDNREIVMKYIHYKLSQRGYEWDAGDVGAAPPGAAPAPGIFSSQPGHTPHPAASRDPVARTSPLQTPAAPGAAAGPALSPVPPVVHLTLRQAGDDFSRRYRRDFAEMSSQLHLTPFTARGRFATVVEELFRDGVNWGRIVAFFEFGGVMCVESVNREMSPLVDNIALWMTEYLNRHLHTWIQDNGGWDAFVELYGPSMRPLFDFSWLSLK
Description: (§1) This example illustrates assays for determining the selectivity of chemical inhibitors for Bfl-1. Bfl-1, as with other Bcl-2 family proteins, participates in a very complex and intricate network of interactions with other representatives of the family. Therefore, two selectivity assays involving family members Bcl-2 and Bcl-B were developed.
(§2) For Bcl-2, a FITC-conjugated peptide corresponding to the BH3 domain of Bim was used. For Bcl-B, a FITC-conjugated peptide corresponding to a fragment of the TR3/Nur77 protein shown to bind this member of the Bcl-2 family was used.
(§3) Probe specificity for target or for cell-based/phenotypic assays data can be determined in orthogonal cell-based assay systems that address the pathway of interest. For example, compounds were tested in Bfl-1/FITC-Bid FPA and TR-FRET assays (FIGS. 7A and 7B, respectively), as well as Bcl-2/FITC-Bim FPA (FIG. 7C) and Bcl-B/FITC-TR3-R8 FPA (FIG. 7D) assays. Data represent concentration in μM x-axis) vs % displacement (y-axis).

Bfl-1 [3] = target: T2, Bfl-1 (Homo sapiens, UniProt Q16548); test: Bfl-1 TR-FRET assay (FITC-Bid, Tb-anti-GST antibody); type: binding
T2 construct: lacking their C-terminal transmembrane domains (approximately last 20 amino-acids); made in house; host or cells: XL-1 Blue cells (E. coli), pGEX 4T-1
T2 sequence (Q16548 1-155 limits assumed): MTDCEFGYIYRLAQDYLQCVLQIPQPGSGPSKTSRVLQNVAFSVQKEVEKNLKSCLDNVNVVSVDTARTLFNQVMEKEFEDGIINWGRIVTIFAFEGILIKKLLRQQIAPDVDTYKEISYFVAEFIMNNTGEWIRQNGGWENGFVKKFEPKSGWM
Experimental: TR-FRET assay. For confirmation of FPA results, a TR-FRET assay utilizing terbium- (Tb-) labeled anti-GST antibody (Th-Ab) was developed. […] The reaction mixture was preincubated for 1 h, and TR-fluorescence (TRF) was measured on an M5 plate reader (Molecular Devices) using excitation at 340 nm and emission at […]. The measurements were averaged from 5 readings during 1 ms after an initial delay 0.1 ms. TR-FRET signal was calculated as the ratio of TR-Fluorescence at 520 nm to TR-Fluorescence at […].
For Bfl-1 TR-FRET assays, Bfl-1 protein and FITC-Bid peptide (FITC-Ahx-[…]) (SEQ ID NO: 1) were utilized. Terbium-anti-GST antibody (Tb-anti-GST Ab) was obtained from Invitrogen (San Diego Calif.). The assay buffer contained 25 mM Bis-Tris, pH 7.0, 1 mM TCEP, and 0.005% Tween 20. The Tb-Ab buffer contained 2.5 nM Tb-anti-GST antibody in assay buffer. The Bfl-1/Th-Ab working solution contained 5 nM Bfl-1 in Th-Ab assay buffer. The solution was prepared fresh and kept on ice prior to use. The FITC-Bid working solution contained 5.6 nM FITC-Bid in assay buffer.
For the Bfl-1 TR-FRET dose-response screening protocol, dose-response curves contained 10 concentrations of compounds obtained using 2-fold serial dilution. Compounds were serially diluted in 100% DMSO, and then diluted with water to 10% final DMSO concentration. A 4 μl aliquot of compounds in 10% DMSO was transferred into columns 3-22 of Greiner 384-well white small-volume plates. Columns 1-2 and 23-24 contained 4 μL of 10% DMSO.
Columns 1-2 were reserved for positive controls, and 8 μL of Th-Ab buffer was added using a WellMate bulk dispenser (Matrix). An aliquot of 8 μL of Bfl-1/Th-Ab working solution was added to columns 3-24 of Greiner 384 well white plates using a WellMate bulk dispenser (Matrix). Columns 23-24 represented negative control wells. Plates were incubated for 1 h at 4° C. An 8 μL aliquot of freshly prepared FITC-Bid working solution was added to the whole plate using WellMate bulk dispenser (Matrix). Plates were incubated for 4 h at room temperature protected from direct light. Fluorescence was measured on the M5 plate reader (excitation: 340 nm, emission: 490 and 520 nm, cutoff: 475 and 515 nm, respectively) in Time Resolved (TR) mode with signal integrated for 1 ms after initial delay of 0.1 ms. TR-FRET signal was calculated as the ratio of TR-Fluorescence at 520 nm to TR-Fluorescence at 490 nm. Data analysis was performed using a sigmoidal dose-response equation through non-linear regression.

Bfl-1 [4] = target: T2, Bfl-1; test: Bfl-1 fluorescence polarization assay (FPA/FP), competition with FITC-Bid BH3 peptide; type: binding
Experimental: Fluorescence polarization assays (FPA). To determine the binding affinity of anti-apoptotic Bcl-2 polypeptides to FITC-conjugated Bid BH3 peptide, fluorescence polarization assays (FPAs) were performed according to published procedures (Zhai et al., Biochem. J. 376:229-236 (2003)). […] Fluorescence polarization was measured after 10 min using an Analyst™ AD Assay Detection System (LJL Biosystem, Sunnyvale, Calif.) in phosphate-buffered saline (PBS) (pH 7.4). The IC50 determinations were performed using GraphPad Prism software (GraphPad, Inc., San Diego, Calif.).
Competition assays. Using the same procedure outlined above, 100 nM of GST-Bfl-1 protein were incubated with the compounds at 50 μM concentration for 30 min. Then, 5 nM of FITC-Bid BH3 peptide was added. Fluorescence polarization was measured after 10 min. […]

Bcl-B = target: T3, Bcl-B (Homo sapiens, UniProt Q9HD36); test: Bcl-B/FITC-TR3-R8 FPA selectivity assay; type: binding
T3 construct: lacking their C-terminal transmembrane domains (approximately last 20 amino-acids); GST (N); made in house; host or cells: XL-1 Blue cells (E. coli), pGEX 4T-1
T3 sequence (Q9HD36 1-182 limits assumed): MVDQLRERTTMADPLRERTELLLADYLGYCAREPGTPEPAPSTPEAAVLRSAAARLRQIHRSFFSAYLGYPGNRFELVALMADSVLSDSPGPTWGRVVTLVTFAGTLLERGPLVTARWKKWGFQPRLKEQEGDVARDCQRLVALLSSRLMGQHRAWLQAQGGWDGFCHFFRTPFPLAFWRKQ
Description: as §1, §2, §3

Solubility = test: Solubility
Experimental: Compounds were screened for inhibitory activity of Bfl-1 essentially as described in Example 1, and including a 1 h incubation of Bfl-1 in the presence of compounds and a 4 h incubation after the subsequent addition of the fluorescent probe. […] The assay was screened against the entire NIH small molecule library, which at the time consisted of 65,000 compounds. […] Controls included an “artifact” plate on which a GAPDH assay was performed to check selectivity, and a solubility plate on which a solubility assay was performed to test solubility.

[5] = Tables 3-5, read-out: Bfl-1 TR FRET IC50

In the case of `COc1ccc(-c2cc(N)n(S(=O)(=O)c3c(F)c(F)c(F)c(F)c3F)n2)cc1OC` [Compound 10], the induction of apoptosis [1] is reported as “induction of apoptosis”.

In the case of `COc1ccc(-c2cc(C(F)(F)F)nc(S(C)(=O)=O)n2)cc1OC` [Compound 11], the induction of apoptosis [1] is reported as “induction of apoptosis”.

In the case of `CCOC(=O)CS(=O)(=O)c1nc(-c2ccc(F)cc2)cc(C(F)(F)F)n1` [Compound 9], the induction of apoptosis [1] is reported as “induction of apoptosis”.

In the case of `O=C(O[C@@H]1Cc2c(O)cc(O)cc2O[C@@H]1c1cc(O)c(O)c(O)c1)c1cc(O)c(O)c(O)c1` [ECGC, epigallecatechin], the “binding to anti-apoptotic Bcl-2-family members” value [2] is reported as “binds to all six anti-apoptotic members of the Bcl-2-family”.

For `CCOC(=O)CS(=O)(=O)c1nc(-c2ccccc2)cc(C(F)(F)F)n1` [Compound 3], the induction of apoptosis [1] was “induction of apoptosis”.

With `CN1CCN(C2=C(Cl)C(=O)N(c3ccc(Cl)c(Cl)c3)C2=O)CC1` [CID-1180676, 3-chloro-1-(3,4-dichlorophenyl)-4-(4-methylpiperazin-1-yl)pyrrole-2,5-dione] the “Competition for binding of a BH3 peptide to Bcl-2, in words” value (Bcl-2; Bcl-2/FITC-Bim complex) was “limited activity”, the “Bfl-1 TR-FRET assay, activity in words” value (Bfl-1 [3]; Bfl-1/FITC-Bid) was “submicromolar potency; also recorded: potently disrupt” and the IC50 (Bfl-1 [3]; [5]) was 0.56 µM. The IC50 (Bfl-1 [3]; Tables 7-8, Avg where the cell lists several determinations, read-out: Bfl-1 TR-FRET IC50) was 0.479 µM, the “Bfl-1 TR-FRET IC50 (uM), individual determinations” value (Bfl-1 [3]; Tables 7-8, single values listed before the Avg) was “nofit” and the IC50 (Bfl-1 [3]; Tables 7-8, single values listed before the Avg, read-out: Bfl-1 TR-FRET IC50 (uM), individual determinations) was 0.304 µM and 0.443 µM and 0.317 µM and 0.471 µM and 0.445 µM and 1.09 µM and 0.475 µM and 0.584 µM and 0.186 µM. The “Bfl-1 FP assay, activity in words” value (Bfl-1 [4]; Bfl-1/FITC-Bid) was “submicromolar potency; also recorded: potently disrupt”, the IC50 (Bfl-1 [4]; Tables 3-5, read-out: Bfl-1 FP IC50) was 0.75 µM and the IC50 (Bfl-1 [4]; Tables 7-8, Avg where the cell lists several determinations, read-out: Bfl-1 FPA IC50) was 0.617 µM. The “Effect on complex of Bcl-B/FITC-TR3-R8, in words” value (Bcl-B) was “did not affect”.

In the case of `CC(C)C(C(=O)O)N1C(=O)/C(=C/c2ccc(Br)cc2)SC1=S` (stereo not shown) [BH3I-1, (Z)-2-(5-(4-Bromobenzylidene)-4-oxo-2-thioxothiazolidin-3-yl)-3-methylbutanoic acid, reference compound], the IC50 (Bcl-2; read-out: Bcl-2 (FP): IC50) is reported as 1.14 µM, the IC50 (Bfl-1 [4]; conditions not stated, not the assay with 0.005% Tween 20, read-out: Bfl-1 (FP): IC50) is reported as 4.65 µM and the IC50 (Bfl-1 [4]; in the presence of 0.005% Tween 20, read-out: IC50 in Bfl-1 FP assay) is reported as over 20 µM. It also gave an IC50 (Bcl-B; read-out: Bcl-B (FP): IC50) of 1.08 µM.

With `O=C1C(Cl)=C(N2CCN(CCOCCO)CC2)C(=O)N1c1ccc(Cl)c(Cl)c1` [MLS-0090861] the “aqueous solubility compared with CID-1180676” value (Solubility) was “enhanced aqueous solubility”, the IC50 (Bfl-1 [3]; [5]) was 0.42 µM and the IC50 (Bfl-1 [4]; text b268, assay not stated (equals FP value of Table 5), read-out: IC50) was 0.47 µM.
